In US20120245137A1 (Zalicus Pharmaceuticals Ltd., priority 2009, published 2012):

Experiments:
[1] = molecular target: N-type calcium channel subunits (α1B, α2δ, and β3a) (Homo sapiens, UniProt Q00975); test: Block of Cav2.2 channel, whole cell voltage clamp, manual and PatchXpress; assay type: cell-based; conditions: Table 5; table follows Assay Example 3 (whole cell voltage clamp / PatchXpress); assay not given
Method in brief: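 Percent block taken as current amplitude ratio with versus without compound, applied in rising doses; IC50 fitted where one cell received multiple doses. Protocol: 50 ms pulses to +20 mV at 0.067 Hz from […] or −90 mV holding; P/n leak subtraction, no junction-potential correction; manual and PatchXpress recordings.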

[2] = molecular target: human α1G T-type channels (Homo sapiens, UniProt O43497); test: T-type calcium channel block, whole cell patch clamp, α1G; assay type: cell-based; conditions: HEK cells stably expressing human α1G; mainly non-inactivated protocol; values above 10,000 nM represented as 10000
Experimental: T-type calcium channel blocking activity was assayed in human embryonic kidneycells, HEK 293 (Invitrogen), stably transfected with the T-type calcium channel subunits. Briefly, cells were cultured in Dulbecco's modified eagle medium (DMEM) supplemented with 10% fetal bovine serum, 200 U/ml penicillin, and 0.2 mg/mL streptomycin at 37° C. with 5% CO2. At 85% confluency, cells were split with 0.25% trypsin/1 mM EDTA and plated at 10% confluency on glass coverslips. At 12 hours, the medium was replaced, and the cells stably transfected using a standard calcium phosphate protocol and the appropriate calcium channel cDNA's. Fresh DMEM was supplied, and the cells transferred to 28° C./5% CO2.
Standard patch-clamp techniques were employed to identify blockers of T-type currents. Briefly, previously described HEK cell lines stably expressing human α1G, α1H, and α1I T-type channels were used for all the recordings (passage #: 4-20, 37° C., 5% CO2). Whole cell patch clamp experiments were performed using an Axopatch 200B amplifier (Axon Instruments, Burlingame, Calif.) linked to a personal computer equipped with pCLAMP software. Data were analyzed using Clampfit (Axon Instruments) and SigmaPlot 4.0 (Jandel Scientific). To obtain T-type currents, plastic dishes containing semi-confluent cells were positioned on the stage of a ZEISS AXIOVERT S100 microscope after replacing the culture medium with external solution (Table 2). Whole-cell patches were obtained using pipettes (borosilicate glass with filament, O.D.: 1.5 mm, I.D.: 0.86 mm, 10 cm length), fabricated on a SUTTER P-97 puller with resistance values of ˜5 MΩ (Table 3).
T-type currents were reliably obtained by using two voltage protocols: • “non-inactivating,” and • “inactivation.”
Test compounds were dissolved in external solution, 0.1-0.01% DMSO. After ˜10 minutes rest, they were applied by gravity close to the cell using a WPI microfil tubing. The “non-inactivated” pre-pulse was used to examine the resting block of a compound. The “inactivated” protocol was employed to study voltage-dependent block.

N-type calcium channel subunits (α1B, α2δ, and β3a), sequence (Q00975 whole entry): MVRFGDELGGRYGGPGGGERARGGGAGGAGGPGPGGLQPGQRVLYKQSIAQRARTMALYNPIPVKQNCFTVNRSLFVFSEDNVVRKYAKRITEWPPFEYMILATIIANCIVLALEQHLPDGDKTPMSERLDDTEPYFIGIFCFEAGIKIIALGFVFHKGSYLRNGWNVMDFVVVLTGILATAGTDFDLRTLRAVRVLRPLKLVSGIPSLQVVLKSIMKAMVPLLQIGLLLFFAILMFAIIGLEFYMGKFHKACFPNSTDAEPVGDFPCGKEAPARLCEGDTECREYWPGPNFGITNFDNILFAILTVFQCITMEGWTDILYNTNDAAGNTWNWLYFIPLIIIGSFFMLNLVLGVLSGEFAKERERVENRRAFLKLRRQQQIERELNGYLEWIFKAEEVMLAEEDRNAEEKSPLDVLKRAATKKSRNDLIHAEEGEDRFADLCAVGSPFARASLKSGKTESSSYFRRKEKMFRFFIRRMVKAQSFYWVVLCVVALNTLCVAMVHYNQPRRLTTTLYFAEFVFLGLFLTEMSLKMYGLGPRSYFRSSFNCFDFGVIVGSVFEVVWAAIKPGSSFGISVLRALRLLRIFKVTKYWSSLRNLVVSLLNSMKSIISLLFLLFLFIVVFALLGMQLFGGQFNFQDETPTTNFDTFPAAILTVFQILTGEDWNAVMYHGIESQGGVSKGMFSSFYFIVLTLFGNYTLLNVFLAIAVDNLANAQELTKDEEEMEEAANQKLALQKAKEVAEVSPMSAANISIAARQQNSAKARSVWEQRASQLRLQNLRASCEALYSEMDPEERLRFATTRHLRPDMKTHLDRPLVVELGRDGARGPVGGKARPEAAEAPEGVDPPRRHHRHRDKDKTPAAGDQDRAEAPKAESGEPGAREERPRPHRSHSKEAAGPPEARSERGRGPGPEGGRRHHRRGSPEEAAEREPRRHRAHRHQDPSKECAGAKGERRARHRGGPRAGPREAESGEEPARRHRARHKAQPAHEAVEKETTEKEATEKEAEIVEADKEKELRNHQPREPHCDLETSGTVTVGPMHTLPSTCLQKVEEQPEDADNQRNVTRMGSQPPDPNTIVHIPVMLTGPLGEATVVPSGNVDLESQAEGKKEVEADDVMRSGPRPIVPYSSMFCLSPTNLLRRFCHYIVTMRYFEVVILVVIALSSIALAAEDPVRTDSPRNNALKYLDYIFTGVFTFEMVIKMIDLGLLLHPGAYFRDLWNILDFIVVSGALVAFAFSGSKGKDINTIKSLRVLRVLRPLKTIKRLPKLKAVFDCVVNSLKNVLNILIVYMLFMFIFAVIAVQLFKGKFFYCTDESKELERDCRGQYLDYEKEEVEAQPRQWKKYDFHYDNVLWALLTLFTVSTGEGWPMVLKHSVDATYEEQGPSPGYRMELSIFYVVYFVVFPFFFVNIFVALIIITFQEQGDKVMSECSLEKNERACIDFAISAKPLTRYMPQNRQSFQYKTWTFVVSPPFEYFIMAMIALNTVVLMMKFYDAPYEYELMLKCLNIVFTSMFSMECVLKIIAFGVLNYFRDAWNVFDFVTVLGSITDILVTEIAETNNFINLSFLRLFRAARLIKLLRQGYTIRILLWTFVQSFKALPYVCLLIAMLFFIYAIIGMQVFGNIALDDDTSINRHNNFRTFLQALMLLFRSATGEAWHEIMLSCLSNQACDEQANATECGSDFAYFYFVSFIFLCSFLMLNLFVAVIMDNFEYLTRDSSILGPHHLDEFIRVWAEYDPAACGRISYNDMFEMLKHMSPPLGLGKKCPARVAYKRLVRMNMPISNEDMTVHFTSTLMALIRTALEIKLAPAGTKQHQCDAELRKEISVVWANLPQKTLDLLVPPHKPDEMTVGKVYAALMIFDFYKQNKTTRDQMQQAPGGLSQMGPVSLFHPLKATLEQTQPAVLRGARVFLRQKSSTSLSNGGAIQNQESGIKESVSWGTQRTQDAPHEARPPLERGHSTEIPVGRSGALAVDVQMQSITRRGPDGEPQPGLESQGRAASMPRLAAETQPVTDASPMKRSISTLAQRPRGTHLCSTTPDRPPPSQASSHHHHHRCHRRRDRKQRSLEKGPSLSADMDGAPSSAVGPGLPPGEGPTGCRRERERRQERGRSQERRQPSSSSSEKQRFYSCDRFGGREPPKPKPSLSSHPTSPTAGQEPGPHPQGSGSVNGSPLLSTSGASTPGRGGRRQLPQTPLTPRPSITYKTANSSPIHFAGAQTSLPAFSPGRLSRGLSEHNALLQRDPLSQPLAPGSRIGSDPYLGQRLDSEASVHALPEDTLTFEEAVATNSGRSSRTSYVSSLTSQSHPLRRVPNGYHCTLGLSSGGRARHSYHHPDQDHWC
N-type calcium channel subunits (α1B, α2δ, and β3a), sequence (P54289 25-1103 partner): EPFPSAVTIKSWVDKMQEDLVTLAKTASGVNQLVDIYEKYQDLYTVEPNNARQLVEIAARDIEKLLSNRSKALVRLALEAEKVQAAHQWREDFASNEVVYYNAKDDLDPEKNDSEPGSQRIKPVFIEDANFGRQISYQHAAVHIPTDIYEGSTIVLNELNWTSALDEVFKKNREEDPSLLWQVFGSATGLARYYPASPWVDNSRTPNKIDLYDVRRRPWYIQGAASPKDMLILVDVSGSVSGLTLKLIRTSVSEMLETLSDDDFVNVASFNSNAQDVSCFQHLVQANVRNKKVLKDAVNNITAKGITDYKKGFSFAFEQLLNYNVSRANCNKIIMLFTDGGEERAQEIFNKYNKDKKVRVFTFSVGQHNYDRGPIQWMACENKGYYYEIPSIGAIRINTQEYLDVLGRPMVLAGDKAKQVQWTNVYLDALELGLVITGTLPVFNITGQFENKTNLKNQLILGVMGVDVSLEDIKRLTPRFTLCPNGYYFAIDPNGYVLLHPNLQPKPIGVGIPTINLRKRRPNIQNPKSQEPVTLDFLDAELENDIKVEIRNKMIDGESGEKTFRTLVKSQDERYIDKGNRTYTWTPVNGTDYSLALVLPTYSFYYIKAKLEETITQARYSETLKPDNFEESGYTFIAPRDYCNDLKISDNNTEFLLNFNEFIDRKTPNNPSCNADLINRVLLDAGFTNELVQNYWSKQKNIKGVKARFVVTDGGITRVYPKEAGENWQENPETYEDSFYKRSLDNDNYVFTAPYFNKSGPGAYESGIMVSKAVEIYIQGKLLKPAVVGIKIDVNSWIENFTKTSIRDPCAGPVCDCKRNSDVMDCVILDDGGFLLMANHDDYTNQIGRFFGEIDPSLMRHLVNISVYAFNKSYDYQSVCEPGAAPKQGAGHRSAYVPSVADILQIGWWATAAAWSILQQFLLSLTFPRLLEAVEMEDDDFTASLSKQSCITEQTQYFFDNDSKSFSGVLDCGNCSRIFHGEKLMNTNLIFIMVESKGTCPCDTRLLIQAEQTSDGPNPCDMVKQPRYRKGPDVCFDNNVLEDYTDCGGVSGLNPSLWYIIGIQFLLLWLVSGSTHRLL
N-type calcium channel subunits (α1B, α2δ, and β3a), sequence (P54284 whole entry partner): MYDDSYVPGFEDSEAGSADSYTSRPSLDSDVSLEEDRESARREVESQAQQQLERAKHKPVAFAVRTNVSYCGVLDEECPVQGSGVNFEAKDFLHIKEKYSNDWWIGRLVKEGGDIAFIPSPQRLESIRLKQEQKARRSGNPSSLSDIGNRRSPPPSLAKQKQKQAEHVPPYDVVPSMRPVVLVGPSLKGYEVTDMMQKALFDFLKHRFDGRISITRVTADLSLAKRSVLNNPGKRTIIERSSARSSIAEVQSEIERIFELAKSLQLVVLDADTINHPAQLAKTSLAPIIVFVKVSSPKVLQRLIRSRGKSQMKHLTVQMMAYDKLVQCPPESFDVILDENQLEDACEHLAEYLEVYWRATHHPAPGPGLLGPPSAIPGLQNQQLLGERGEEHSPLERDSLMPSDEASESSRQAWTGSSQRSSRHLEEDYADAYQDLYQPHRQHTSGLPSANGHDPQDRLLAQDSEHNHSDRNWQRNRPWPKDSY

Compound	IC50 [1] [nM]	IC50 [2] [nM]
4-(trifluoromethyl)-N-((1R,4R)-4- ((3- (trifluoromethyl)phenylsulfonyl) methyl)cyclohexyl)picolinamide [Compound 103]	460	> 10000
Cn1nc(C(F)(F)F)cc1C(=O)NCC1(C)CCC(F)(S(=O)(=O)c2cccc(C(F)(F)F)c2)CC1 (stereo not drawn) [Compound 151, N-((4-fluoro-1-methyl-4-(3-(trifluoromethyl)phenylsulfonyl)cyclohexyl)methyl)-l-methyl-3-(trifluoromethyl)-1H-pyrazole-5-carboxamide]	580	2900
CC1(CNC(=O)c2ccc(C(F)(F)F)cn2)CCC(F)(S(=O)(=O)c2cccc(C(F)(F)F)c2)CC1 (centres unmarked) [Compound 152, N-((4-fluoro-1-methyl-4-(3-(trifluoromethyl)phenylsulfonyl)cyclohexyl)methyl)-5-(trifluoromethyl)picolinamide]	550	3600
CC1(CNC(=O)c2ccc(F)c(Cl)c2)CCC(F)(S(=O)(=O)c2cccc(C(F)(F)F)c2)CC1 (centres unmarked) [Compound 153, 3-chloro-4-fluoro-N-((4-fluoro-1-methyl-4-(3-(trifluoromethyl)phenylsulfonyl)cyclohexyl)methyl)benzamide]	500	5230
CC1(CNC(=O)c2cc(F)cc(Cl)c2)CCC(F)(S(=O)(=O)c2cccc(C(F)(F)F)c2)CC1 (centres unmarked) [Compound 154, 3-chloro-5-fluoro-N-((4-fluoro-1-methyl-4-(3-(trifluoromethyl)phenylsulfonyl)cyclohexyl)methyl)benzamide]	450	3600
CC1(CNC(=O)c2ccc(C(F)(F)F)cc2S(C)(=O)=O)CCC(F)(S(=O)(=O)c2cccc(C(F)(F)F)c2)CC1 (centres unmarked) [Compound 155, N-((4-fluoro-1-methyl-4-(3-(trifluoromethyl)phenylsulfonyl)cyclohexyl)methyl)-2-(methylsulfonyl)-4-(trifluoromethyl)benzamide]	540	960
CN(CC(=O)N[C@H]1CC[C@H](CS(=O)(=O)c2cccc(C(F)(F)F)c2)CC1)C1CCCCC1 [Compound 163]	470	> 10000
CC1(CNC(=O)c2ccc(C(F)(F)F)nc2)CCC(S(=O)(=O)c2cccc(C(F)(F)F)c2)CC1 (centres unmarked) [Compound 213, N-((1-methyl-4-(3-(trifluoromethyl)phenylsulfonyl)cyclohexyl)methyl)-6-(trifluoromethyl)nicotinamide]	620	940
O=C(NC[C@]1(O)CC[C@@H](S(=O)(=O)c2cccc(C(F)(F)F)c2)CC1)c1cc(F)cc(Cl)c1 [Compound 228, 3-chloro-5-fluoro-N-(((1S,4S)-1-hydroxy-4-(3-(trifluoromethyl)phenylsulfonyl)cyclohexyl)methyl)benzamide]	740	330
O=C(NC[C@]1(O)CC[C@@H](S(=O)(=O)c2cccc(C(F)(F)F)c2)CC1)c1ccc(F)c(C(F)(F)F)c1 [Compound 234, 4-fluoro-N-(((1S,4S)-1-hydroxy-4-(3-(trifluoromethyl)phenylsulfonyl)cyclohexyl)methyl)-3-(trifluoromethyl)benzamide]	870	2120
O=C(N[C@H]1CC[C@@](F)(S(=O)(=O)c2cccc(C(F)(F)F)c2)CC1)c1ccc(F)c(Cl)c1 [Compound 238, 3-chloro-4-fluoro-N-((1S,4S)-4-fluoro-4-(3-(trifluoromethyl)phenylsulfonyl)cyclohexyl)benzamide]	90	2780
CS(=O)(=O)c1cc(C(F)(F)F)ccc1C(=O)N[C@H]1CC[C@@](F)(S(=O)(=O)c2cccc(C(F)(F)F)c2)CC1 [Compound 239, N-((1S,4S)-4-fluoro-4-(3-(trifluoromethyl)phenylsulfonyl)cyclohexyl)-2-(methylsulfonyl)-4-(trifluoromethyl)benzamide]	340	1610
Cn1nc(C(F)(F)F)cc1C(=O)N[C@H]1CC[C@@](F)(S(=O)(=O)c2cccc(C(F)(F)F)c2)CC1 [Compound 241, N-((1S,4S)-4-fluoro-4-(3-(trifluoromethyl)phenylsulfonyl)cyclohexyl)-1-methyl-3-(trifluoromethyl)-1H-pyrazole-5-carboxamide]	130	1450
COc1cc(C(=O)N[C@H]2CC[C@@](F)(S(=O)(=O)c3cccc(C(F)(F)F)c3)CC2)cc(Cl)n1 [Compound 242, 2-chloro-N-((1S,4S)-4-fluoro-4-(3-(trifluoromethyl)phenylsulfonyl)cyclohexyl)-6-methoxyisonicotinamide]	110	4300
CC(C)(C)c1nc([C@H]2C[C@H](S(=O)(=O)c3cccc(C(F)(F)F)c3)C2)c[nH]1 [Compound 448, 2-tert-butyl-4-((1R,3R)-3-(3-(trifluoromethyl)phenylsulfonyl)cyclobutyl)-1H-imidazole]	2110	
Cc1cccc(C(=O)NCC(C)(C)S(=O)(=O)c2cccc(C(F)(F)F)c2)n1 [Compound 485, 6-methyl-N-(2-methyl-2-(3-(trifluoromethyl)phenylsulfonyl)propyl) picolinamide]		710
CC(C)(CNS(=O)(=O)c1cccc2nonc12)S(=O)(=O)c1cccc(C(F)(F)F)c1 [Compound 493]		680
CC(C)(CNS(=O)(=O)c1ccc(S(C)(=O)=O)cc1)S(=O)(=O)c1cccc(C(F)(F)F)c1 [Compound 497, N-(2-methyl-2-(3-(trifluoromethyl)phenylsulfonyl)propyl)-4-(methylsulfonyl) benzenesulfonamide]		520
CN(CCC(C)(C)S(=O)(=O)c1cccc(C(F)(F)F)c1)C(=O)c1ccc(C(F)(F)F)cc1S(C)(=O)=O [Compound 508, N-methyl-N-(3-methyl-3-(3-(trifluoromethyl)phenylsulfonyl)butyl)-2-(methylsulfonyl)-4-(trifluoromethyl)benzamide]		850
CN(CCC(C)(C)S(=O)(=O)c1cccc(C(F)(F)F)c1)C(=O)c1cc(C(F)(F)F)nn1C [Compound 509, N,1-dimethyl-N-(3-methyl-3-(3-(trifluoromethyl)phenylsulfonyl)butyl)-3-(trifluoromethyl)-1H-pyrazole-5-carboxamide]		650
CN(CCC(C)(C)S(=O)(=O)c1cccc(C(F)(F)F)c1)C(=O)c1ccc(C(F)(F)F)nc1 [Compound 511, N-methyl-N-(3-methyl-3-(3-(trifluoromethyl)phenylsulfonyl)butyl)-6-(trifluoromethyl)nicotinamide]		960
CN(CCC(C)(C)S(=O)(=O)c1cccc(C(F)(F)F)c1)C(=O)c1ccc(C(F)(F)F)cn1 [Compound 515, N-methyl-N-(3-methyl-3-(3-(trifluoromethyl)phenylsulfonyl)bulyl)-5-(trifluoromethyl)picolinamide]		610
CC(C)(CCNC(=O)c1cc(S(C)(=O)=O)ccc1Cl)S(=O)(=O)c1cccc(C(F)(F)F)c1 [Compound 530, 2-chloro-N-(3-methyl-3-(3-(trifluoromethyl)phenylsulfonyl)butyl)-5-(methylsulfonyl)benzamide]		940
CC(C)(CCNC(=O)c1ccnc(C(F)(F)F)n1)S(=O)(=O)c1cc(F)cc(C(F)(F)F)c1 [Compound 534, N-(3-(3-fluoro-5-(trifluoromethyl)phenylsulfonyl)-3-methylbutyl)-2-(trifluoromethyl)pyrimidine-4-carboxamide]		830
